# Assay results: patent publication US20240382730A1, “FLEXIBLE MICRONEEDLE ARRAY PATCH FOR CHRONIC WOUND OXYGENATION AND BIOFILM ERADICATION” (Purdue Research Foundation, priority 2021, published 2024)
# Test system: S. aureus mature biofilm
# Experiment: Colony biofilm model, mature biofilm
# Format: cell-based, Staphylococcus aureus
# Conditions: FIG. 9a; powder amount estimated equal to that in the CPO-loaded MN sample, 24 h
# Protocol: Biofilm Antibacterial Studies. Antibiofilm activity of MNs loaded with CPO was evaluated by the colony biofilm model. Overnight cultures of S. aureus and P. aeruginosa were diluted to 2×10^5 CFU mL−1 with TSB. Next, 50 μL of the diluted bacterial suspension was inoculated onto sterile 10 mm nitrocellulose disks placed on the surface of tryptic soy agar (TSA) plates. To allow biofilm development on the nitrocellulose membrane, the plates were incubated at 37° C. for 72 h. The developed biofilm was then nourished by aseptically transferring to new TSA plates every day for 4 days.31,38 After maturation of the biofilms, 12 mm disks of MNs loaded with CPO and control samples including PET films, CPO powder, and 12 mm disks of MNs without CPO were placed onto the biofilm using sterile forceps. The quantity of CPO powder in the control was estimated to be the amount of CPO powder present in the sample of MNs loaded with CPO. For all experiments, biofilms without any treatments were used as the negative control. The plates were further incubated at 37° C. for 24 h immediately after each treatment. […] The plates were further incubated at 37° C. for 24 h and viable CFU mL−1 were calculated.
smiles,measurement,value
"[Ca+2].[O-][O-] [CPO, calcium peroxide]",effect on number of colonies in biofilm,did not affect the number of colonies
